Assay results from patent publication US20100179151A1, “TRANSDERMAL APPLICATION OF TRIAZINES FOR CONTROLLING INFECTIONS WITH COCCIDIA” (BAYER ANIMAL HEALTH GMBH, priority 2006, published 2010).
Where “and” joins values, the source holds several entries; their conditions need not be identical. Identical values can stand only once.

How the values were obtained:
Type in all cases: in vivo
[1] = Serum concentrations of toltrazuril and ponazuril after pour-on application in calves
Experimental: (§1) A. Determination of the Serum Concentrations of Toltrazuril and Ponazuril after Pour-On Application in Calves and Rabbits On day 0, the formulation of Example 10 was applied externally at a dose of 20 mg per kg (body weight) to in each case three calves and rabbits. At the points in time specified in the tables, the serum concentrations of toltrazuril and its metabolite ponazuril (toltrazuril sulphone) were determined.

[2] = Serum concentrations of toltrazuril and ponazuril after pour-on application in rabbits; conditions: for Ponazuril in mg/l on day after the treatment (serum, metabolite of toltrazuril) / Toltrazuril in mg/l on day after the treatment (serum): individual animals 1-3
Experimental: as §1

Isospora suis = experiment: Activity of toltrazuril pour-on against artificially provoked infections in suckling pigs with Isospora suis; conditions: pour-on treatment
Experimental: B. Activity of Toltrazuril Pour-On Against Artificially Provoked Infections in Suckling Pigs with Isospora suis: 3 groups with 4 to 11 animals were formed. Group A was infected with oocysts and treated with the toltrazuril pour-on formulation of Example 10. Group B was not infected, but treated in the same manner, the dosage rate of group A and B being in each case 20 mg/kg body weight. Group C was infected with oocysts, but not treated with toltrazuril. The success of the treatment was determined by monitoring the live weight of the animals. To this end, the animals were weighed on different days, and the weight gain of the individual animals was determined The results are shown in Table 3.

[3] = Percutaneous absorption in pigs: detection of active substance and main metabolite in serum and body tissues; conditions: pour-on, serum, musculature, skin, liver, kidney
Text: Astonishingly, this is even the case in animal species with little hair. Animals with little hair, such as pigs, ensure the protective function of the outer integument via a thicker epidermis. It is entirely surprising that the active substance is absorbed across this thicker skin and in particular also across the stratum corneum of the skin, which is particularly thick in pigs. Moreover, the active substance can also not be taken up via the large number of hair follicles, as is in the case in other animal species with a thicker coat of hair.

Cc1cc(-n2c(=O)[nH]c(=O)n(C)c2=O)ccc1Oc1ccc(S(=O)(=O)C(F)(F)F)cc1 [Ponazuril, ponazuril]
Ponazuril in mg/l on day after the treatment (serum, metabolite of toltrazuril) ([1]; day 0, toltrazuril formulation of Example 10 pour-on 20 mg/kg, individual animals 1-3, LoQ 25 μg/l): <LoQ | Ponazuril in mg/l on day after the treatment (serum, metabolite of toltrazuril) ([1]; day 1, toltrazuril formulation of Example 10 pour-on 20 mg/kg, individual animals 1-3): 156 mg/L and 44 mg/L and 146 mg/L | Ponazuril in mg/l on day after the treatment (serum, metabolite of toltrazuril) ([1]; day 7, toltrazuril formulation of Example 10 pour-on 20 mg/kg, individual animals 1-3): 9715 mg/L and 2735 mg/L and 2615 mg/L | Ponazuril in mg/l on day after the treatment (serum, metabolite of toltrazuril) ([1]; day 13, toltrazuril formulation of Example 10 pour-on 20 mg/kg, individual animals 1-3): 4506 mg/L and 3440 mg/L and 1905 mg/L | Ponazuril in mg/l on day after the treatment (serum, metabolite of toltrazuril) ([1]; day 21, toltrazuril formulation of Example 10 pour-on 20 mg/kg, individual animals 1-3): 1394 mg/L and 733 mg/L and 1172 mg/L | Ponazuril in mg/l on day after the treatment (serum, metabolite of toltrazuril) ([2]; day 1, toltrazuril formulation of Example 10 pour-on 20 mg/kg): 1.79 mg/l and 1.38 mg/l (2×) | Ponazuril in mg/l on day after the treatment (serum, metabolite of toltrazuril) ([2]; day 2, toltrazuril formulation of Example 10 pour-on 20 mg/kg): 4.72 mg/L and 2.63 mg/L and 2.83 mg/L | Ponazuril in mg/l on day after the treatment (serum, metabolite of toltrazuril) ([2]; day 3, toltrazuril formulation of Example 10 pour-on 20 mg/kg): 5.03 mg/L and 4.07 mg/L and 3.42 mg/L

Cc1cc(-n2c(=O)[nH]c(=O)n(C)c2=O)ccc1Oc1ccc(SC(F)(F)F)cc1 [Toltrazuril, toltrazuril]
Percutaneous absorption and metabolism after pour-on application [1]: percutaneously absorbed, and metabolised | Toltrazuril in mg/l on day after the treatment (serum) ([1]; day 0, formulation of Example 10 applied externally (pour-on) 20 mg/kg, individual animals 1-3, LoQ 25 μg/l): <LoQ | Toltrazuril in mg/l on day after the treatment (serum) ([1]; day 1, formulation of Example 10 pour-on 20 mg/kg, individual animals 1-3): 2180 mg/L and 650 mg/L and 2281 mg/L | Toltrazuril in mg/l on day after the treatment (serum) ([1]; day 7, formulation of Example 10 pour-on 20 mg/kg, individual animals 1-3): 9246 mg/L and 2042 mg/L and 2275 mg/L | Toltrazuril in mg/l on day after the treatment (serum) ([1]; day 13, formulation of Example 10 pour-on 20 mg/kg, individual animals 1-3): 2194 mg/L and 1806 mg/L and 702 mg/L | Toltrazuril in mg/l on day after the treatment (serum) ([1]; day 21, formulation of Example 10 pour-on 20 mg/kg, individual animals 1-3): 462 mg/L and 371 mg/L and 430 mg/L | Percutaneous absorption and metabolism after pour-on application [2]: percutaneously absorbed, and metabolised | Toltrazuril in mg/l on day after the treatment (serum) ([2]; day 1, formulation of Example 10 pour-on 20 mg/kg): 9.06 mg/L and 8.67 mg/L and 9.67 mg/L | Toltrazuril in mg/l on day after the treatment (serum) ([2]; day 2, formulation of Example 10 pour-on 20 mg/kg): 10.39 mg/L and 6.03 mg/L and 8.03 mg/L | Toltrazuril in mg/l on day after the treatment (serum) ([2]; day 3, formulation of Example 10 pour-on 20 mg/kg): 6.66 mg/L and 5.07 mg/L and 6.70 mg/L | Control of massive infection with Isospora suis (Isospora suis): successfully controlled | Elimination of oocysts (parasitological efficacy) (Isospora suis): reduced elimination of oocysts | Incidence of diarrhoea (clinical efficacy) (Isospora suis): reduced incidence of diarrhoea | Weight development (clinical efficacy) (Isospora suis): better weight development | Percutaneous absorption: active substance and main metabolite detected in body tissues [3]: percutaneous absorption was also demonstrated
